Test results taken from patent US20240358693A1, “METHODS OF TREATING PAIN” (Aisa Pharma, Inc., priority 2023, published 2024).

System: participants with SSc-RP
Experiment: Scleroderma Health Assessment Questionnaire (SHAQ): disability indices and visual analog scales
Format: in vivo, human
Conditions: PP Population, Part A, sensitivity analysis
Source text: The standard, validated, patient reported outcome measures tool for SSc patients, the Scleroderma Health Assessment Questionnaire (SHAQ), will be used to assess the participant qualify of life. Details are attached in the Appendix. The participant quality of life will be scored, and a disability index calculated for each questionnaire completed by the patient at Screening and each in-clinic visit. The absolute change in participant quality of life from baseline to the end of each dosing period will be calculated similar to frequency data as before.
The SHAQ includes a Raynaud's VAS, which will be reported at screening and each in-clinic visit. The absolute change in Raynaud-VAS, assessed by the participants response to the SHAQ question ‘In the past 7 days, how much have your Raynaud's interfered with your daily activities?’ at baseline and the end of each dosing period will be calculated similar to frequency data as before.
The SHAQ is used to calculate a Disability Index to assess the participant qualify of life. The eight categories assessed by the Disability Index are 1) dressing and grooming, 2) arising, 3) eating, 4) walking, 5) hygiene, 6) reach, 7) grip, and 8) common daily activities. For each of these categories, patients report the amount of difficulty they have in performing two or three specific activities.
There are four possible responses for the Disability Index questions: • Without any difficulty=0 • With some difficulty=1 • With much difficulty=2 • Unable to do=3. • The highest score reported by the patient for any component question of the eight categories determines the score for that category. • If a component question is left blank or the response is too ambiguous to assign a score, then the score for that category is determined by the remaining completed question(s). • If all component questions are blank or if more than one answer is given, then follow up with the respondent is required. • If the respondent's mark is between the response columns, then move it to the closest one. If it's directly between the two, move it to the higher one.
Each of the disability items on the SHAQ has a companion aids/devices variable that is used to record what type(s) of assistance, if any, the participant uses for his/her usual activities. These variables (see below) are coded as follows: • 0=No assistance is needed. • 1=A special device is used by the patient in his/her usual activities. • 2=The patient usually needs help from another person. • 3=The patient usually needs BOTH a special device AND help from another person.
The scoring variables and scoring rules permit the computation of two disability indices, the Standard Disability Index and the Alternative Disability Index.
This question results in a new set of category scores that are computed by adjusting the score for each category, if necessary, based on the patient's use of an aid or device or assistance for that category. If either devices and/or help from another person are checked for a category, the score is set to “2”, unless the score is already “3” (i.e., scores of “0” or “1” are increased to “2”). For example, if the highest score for the dressing category is “1”, and the patient says they use a device for dressing, the computed category score would be “2”. The sum of the computed categories scores is then calculated and divided by the number of categories answered. This gives a score in the 0 to 3 range.
The aid and device variables are not used to calculate the alternative disability index; it is calculated by adding the scores for each of the categories and dividing by the number of categories answered. This gives a score in the 0 to 3 range.
The standard, validated, patient reported outcome measures tool for SSc patients, the SHAQ, was collected at the time points specified in the study schedules (FIG. 2 and FIGS. 4A and 4B) to assess the participant's quality of life. The SHAQ included a Raynaud's VAS that will also be reported separately.

[1] = cilnidipine 10 mg and/or tadalafil 5 mg as labelled
[2] = cilnidipine 20 mg, plus tadalafil 5 mg where labelled

COCCOC(=O)C1=C(C)NC(C)=C(C(=O)OC/C=C/c2ccccc2)C1c1cccc([N+](=O)[O-])c1 (stereo not shown) [Cilnidipine, cilnidipine]
SHAQ Visual Analogue Scale - Intestinal Problems: Change from Baseline (Day 12), Median [1]: −1.550 | SHAQ Visual Analogue Scale - Intestinal Problems: In-Clinic Visit (Day 12), Mean [1]: 1.100 | SHAQ Visual Analogue Scale - Intestinal Problems: In-Clinic Visit (Day 12), Median [1]: 0.300 | SHAQ Visual Analogue Scale - Intestinal Problems: Percent Change from Baseline (Day 12), Mean [1]: −77.37% | SHAQ Visual Analogue Scale - Intestinal Problems: Percent Change from Baseline (Day 12), Median [1]: −88.00% | SHAQ Visual Analogue Scale - Overall Disease Severity: Baseline, Mean [1]: 2.725 | SHAQ Visual Analogue Scale - Overall Disease Severity: Baseline, Median [1]: 1.900 | SHAQ Visual Analogue Scale - Overall Disease Severity: Change from Baseline (Day 12), Mean [1]: −0.900 | SHAQ Visual Analogue Scale - Overall Disease Severity: Change from Baseline (Day 12), Median [1]: −0.950 | SHAQ Visual Analogue Scale - Overall Disease Severity: In-Clinic Visit (Day 12), Mean [1]: 1.825 | SHAQ Visual Analogue Scale - Overall Disease Severity: In-Clinic Visit (Day 12), Median [1]: 1.050 | SHAQ Visual Analogue Scale - Overall Disease Severity: Percent Change from Baseline (Day 12), Mean [1]: −56.96% | SHAQ Visual Analogue Scale - Overall Disease Severity: Percent Change from Baseline (Day 12), Median [1]: −44.12% | SHAQ Visual Analogue Scale - Raynaud's: Baseline, Mean [1]: 1.600 | SHAQ Visual Analogue Scale - Raynaud's: Baseline, Median [1]: 1.000 | SHAQ Visual Analogue Scale - Raynaud's: Change from Baseline (Day 12), Mean [1]: 0.325 | SHAQ Visual Analogue Scale - Raynaud's: Change from Baseline (Day 12), Median [1]: 0.350 | SHAQ Visual Analogue Scale - Raynaud's: In-Clinic Visit (Day 12), Mean [1]: 1.925 | SHAQ Visual Analogue Scale - Raynaud's: In-Clinic Visit (Day 12), Median [1]: 1.700 | SHAQ Visual Analogue Scale - Raynaud's: Percent Change from Baseline (Day 12), Mean [1]: 11.36% | SHAQ Visual Analogue Scale - Raynaud's: Percent Change from Baseline (Day 12), Median [1]: −2.27% | SHAQ Visual Analogue Scale - Breathing Problems: Baseline, Mean [2]: 1.325 | SHAQ Visual Analogue Scale - Breathing Problems: Baseline, Median [2]: 1.550 | SHAQ Visual Analogue Scale - Breathing Problems: Change from Baseline (Day 12), Mean [2]: −0.475 | SHAQ Visual Analogue Scale - Breathing Problems: Change from Baseline (Day 12), Median [2]: −0.250 | SHAQ Visual Analogue Scale - Breathing Problems: In-Clinic Visit (Day 12), Mean [2]: 0.850 | SHAQ Visual Analogue Scale - Breathing Problems: In-Clinic Visit (Day 12), Median [2]: 0.450 | SHAQ Visual Analogue Scale - Breathing Problems: Percent Change from Baseline (Day 12), Mean [2]: 3.73% | SHAQ Visual Analogue Scale - Breathing Problems: Percent Change from Baseline (Day 12), Median [2]: −17.54% | SHAQ Visual Analogue Scale - Finger Ulcers: Baseline, Mean [2]: 1.800 | SHAQ Visual Analogue Scale - Finger Ulcers: Baseline, Median [2]: 0.300 | SHAQ Visual Analogue Scale - Finger Ulcers: Change from Baseline (Day 12), Mean [2]: −0.933 | SHAQ Visual Analogue Scale - Finger Ulcers: Change from Baseline (Day 12), Median [2]: 0.000 | SHAQ Visual Analogue Scale - Finger Ulcers: In-Clinic Visit (Day 12), Mean [2]: 0.650 | SHAQ Visual Analogue Scale - Finger Ulcers: In-Clinic Visit (Day 12), Median [2]: 0.350 | SHAQ Visual Analogue Scale - Finger Ulcers: Percent Change from Baseline (Day 12), Mean [2]: 35.29% | SHAQ Visual Analogue Scale - Finger Ulcers: Percent Change from Baseline (Day 12), Median [2]: 35.29% | SHAQ Visual Analogue Scale - Intestinal Problems: Baseline, Mean [2]: 0.700 | SHAQ Visual Analogue Scale - Intestinal Problems: Baseline, Median [2]: 0.650 | SHAQ Visual Analogue Scale - Intestinal Problems: Change from Baseline (Day 12), Mean [2]: 0.150 | SHAQ Visual Analogue Scale - Intestinal Problems: Change from Baseline (Day 12), Median [2]: 0.150 | SHAQ Visual Analogue Scale - Intestinal Problems: In-Clinic Visit (Day 12), Mean [2]: 0.850 | SHAQ Visual Analogue Scale - Intestinal Problems: In-Clinic Visit (Day 12), Median [2]: 0.650 | SHAQ Visual Analogue Scale - Intestinal Problems: Percent Change from Baseline (Day 12), Mean [2]: −10.00% | SHAQ Visual Analogue Scale - Intestinal Problems: Percent Change from Baseline (Day 12), Median [2]: 30.00% | SHAQ Visual Analogue Scale - Overall Disease Severity: Baseline, Mean [2]: 3.125 | SHAQ Visual Analogue Scale - Overall Disease Severity: Baseline, Median [2]: 2.950 | SHAQ Visual Analogue Scale - Overall Disease Severity: Change from Baseline (Day 12), Mean [2]: −2.000 | SHAQ Visual Analogue Scale - Overall Disease Severity: Change from Baseline (Day 12), Median [2]: −1.700 | SHAQ Visual Analogue Scale - Overall Disease Severity: In-Clinic Visit (Day 12), Mean [2]: 1.125 | SHAQ Visual Analogue Scale - Overall Disease Severity: In-Clinic Visit (Day 12), Median [2]: 1.300 | SHAQ Visual Analogue Scale - Overall Disease Severity: Percent Change from Baseline (Day 12), Mean [2]: −64.20% | SHAQ Visual Analogue Scale - Overall Disease Severity: Percent Change from Baseline (Day 12), Median [2]: −64.44% | SHAQ Visual Analogue Scale - Raynaud's: Baseline, Mean [2]: 3.075 | SHAQ Visual Analogue Scale - Raynaud's: Baseline, Median [2]: 3.000 | SHAQ Visual Analogue Scale - Raynaud's: Change from Baseline (Day 12), Mean [2]: −1.200 | SHAQ Visual Analogue Scale - Raynaud's: Change from Baseline (Day 12), Median [2]: −1.050 | SHAQ Visual Analogue Scale - Raynaud's: In-Clinic Visit (Day 12), Mean [2]: 1.875 | SHAQ Visual Analogue Scale - Raynaud's: In-Clinic Visit (Day 12), Median [2]: 1.250 | SHAQ Visual Analogue Scale - Raynaud's: Percent Change from Baseline (Day 12), Mean [2]: −41.11% | SHAQ Visual Analogue Scale - Raynaud's: Percent Change from Baseline (Day 12), Median [2]: −38.67%
